In patent publication US9969694B2, “N-(arylalkyl)-N′-pyrazolyl-urea, thiourea, guanidine and cyanoguanidine compounds as TrkA kinase inhibitors” (Array BioPharma Inc., priority 2012, dated 2018):

Legend:
Assay in all cases: Off-Target Kinase Profiling
Format in all cases: biochemical
Conditions in all cases: 10 μM; ATP near Km
[1] = molecular target: T1, Ron (Homo sapiens, UniProt Q04912)
T1 construct: purchased Millipore, Inc. (KinaseProfiler service)
Method in brief: (§1)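 Percent of control is reported, the mean of two replicate runs, for each compound tested at 10 μM. The ATP level was set close to each kinase's own Km.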

[2] = molecular target: T2, Flt4 (Homo sapiens, UniProt P35916)
T2 construct: purchased Millipore, Inc. (KinaseProfiler service)
Method in brief: as §1

[3] = molecular target: T3, JAK3 (Homo sapiens, UniProt P52333)
T3 construct: purchased Millipore, Inc. (KinaseProfiler service)
Method in brief: as §1

[4] = molecular target: T4, PTK6 (Homo sapiens, UniProt Q13882)
T4 construct: purchased Millipore, Inc. (KinaseProfiler service)
Method in brief: as §1

[5] = molecular target: T5, FGFR2 (Homo sapiens, UniProt P21802)
T5 construct: purchased Millipore, Inc. (KinaseProfiler service)
Method in brief: as §1

[6] = molecular target: T6, IKKbeta (Homo sapiens, UniProt O14920)
T6 construct: purchased Millipore, Inc. (KinaseProfiler service)
Method in brief: as §1

[7] = molecular target: T7, CAMK1d (Homo sapiens, UniProt Q8IU85)
T7 construct: purchased Millipore (KinaseProfiler service)
T7 sequence (Q8IU85 whole entry): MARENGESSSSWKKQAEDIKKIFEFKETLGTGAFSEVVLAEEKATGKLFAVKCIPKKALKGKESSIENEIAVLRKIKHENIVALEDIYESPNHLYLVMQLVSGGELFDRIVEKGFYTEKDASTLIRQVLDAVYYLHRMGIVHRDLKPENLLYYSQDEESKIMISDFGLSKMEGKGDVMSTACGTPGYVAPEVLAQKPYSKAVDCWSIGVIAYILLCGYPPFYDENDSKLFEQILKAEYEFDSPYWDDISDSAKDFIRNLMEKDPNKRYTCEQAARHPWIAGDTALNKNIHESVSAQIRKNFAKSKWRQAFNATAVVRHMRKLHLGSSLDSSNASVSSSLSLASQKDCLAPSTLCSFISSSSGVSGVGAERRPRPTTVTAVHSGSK
Method in brief: as §1

[8] = molecular target: T8, CHK2 (Homo sapiens, UniProt O96017)
T8 construct: purchased Millipore, Inc. (KinaseProfiler service)
T8 sequence (O96017 whole entry): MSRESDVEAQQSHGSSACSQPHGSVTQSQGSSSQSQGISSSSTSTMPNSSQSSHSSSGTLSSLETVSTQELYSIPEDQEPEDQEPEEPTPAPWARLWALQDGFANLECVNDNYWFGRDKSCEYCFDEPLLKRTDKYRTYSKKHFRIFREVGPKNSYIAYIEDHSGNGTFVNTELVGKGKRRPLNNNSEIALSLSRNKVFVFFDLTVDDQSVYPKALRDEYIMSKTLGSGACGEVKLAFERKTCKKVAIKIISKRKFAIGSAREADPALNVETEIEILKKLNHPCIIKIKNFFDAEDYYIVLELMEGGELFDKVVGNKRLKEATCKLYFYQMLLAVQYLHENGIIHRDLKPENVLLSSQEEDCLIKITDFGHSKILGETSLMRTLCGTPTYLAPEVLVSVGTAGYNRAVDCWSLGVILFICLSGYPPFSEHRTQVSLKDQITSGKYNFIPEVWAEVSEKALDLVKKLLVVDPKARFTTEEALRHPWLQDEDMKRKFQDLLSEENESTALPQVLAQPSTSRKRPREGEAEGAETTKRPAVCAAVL
Method in brief: as §1

[9] = molecular target: T9, KIT (Homo sapiens, UniProt P10721)
T9 construct: purchased Millipore, Inc. (KinaseProfiler service)
Method in brief: as §1

[10] = molecular target: T10, Plk3 (Homo sapiens, UniProt Q9H4B4)
T10 construct: purchased Millipore, Inc. (KinaseProfiler service)
Method in brief: as §1

[11] = molecular target: T11, MSK1 (Homo sapiens, UniProt O75582)
T11 construct: purchased Millipore, Inc. (KinaseProfiler service)
Method in brief: as §1

[12] = molecular target: T12, PAK6 (Homo sapiens, UniProt Q9NQU5)
T12 construct: purchased Millipore, Inc. (KinaseProfiler service)
Method in brief: as §1

[13] = molecular target: T13, TrkB (Homo sapiens, UniProt Q16620)
T13 construct: purchased Millipore, Inc. (KinaseProfiler service)
Method in brief: as §1

[14] = molecular target: T14, AKT1 (Homo sapiens, UniProt P31749)
T14 construct: purchased Millipore (KinaseProfiler service)
Method in brief: as §1

[15] = molecular target: T15, CDK7/cyclinH/MAT1 (Homo sapiens, UniProt P50613)
T15 construct: purchased Millipore, Inc. (KinaseProfiler service)
Method in brief: as §1

[16] = molecular target: T16, IGF-1R Activated (Homo sapiens, UniProt P08069)
T16 construct: purchased Millipore, Inc. (KinaseProfiler service)
Method in brief: as §1

[17] = molecular target: T17, Bmx (Homo sapiens, UniProt P51813)
T17 construct: purchased Millipore (KinaseProfiler service)
Method in brief: as §1

[18] = molecular target: T18, CDK2/cyclinE (Homo sapiens, UniProt P24941)
T18 construct: purchased Millipore, Inc. (KinaseProfiler service)
Method in brief: as §1

[19] = molecular target: T19, CHK1 (Homo sapiens, UniProt O14757)
T19 construct: purchased Millipore, Inc. (KinaseProfiler service)
Method in brief: as §1

[20] = molecular target: T20, DDR2 (Homo sapiens, UniProt Q16832)
T20 construct: purchased Millipore, Inc. (KinaseProfiler service)
T20 sequence (Q16832 22-855): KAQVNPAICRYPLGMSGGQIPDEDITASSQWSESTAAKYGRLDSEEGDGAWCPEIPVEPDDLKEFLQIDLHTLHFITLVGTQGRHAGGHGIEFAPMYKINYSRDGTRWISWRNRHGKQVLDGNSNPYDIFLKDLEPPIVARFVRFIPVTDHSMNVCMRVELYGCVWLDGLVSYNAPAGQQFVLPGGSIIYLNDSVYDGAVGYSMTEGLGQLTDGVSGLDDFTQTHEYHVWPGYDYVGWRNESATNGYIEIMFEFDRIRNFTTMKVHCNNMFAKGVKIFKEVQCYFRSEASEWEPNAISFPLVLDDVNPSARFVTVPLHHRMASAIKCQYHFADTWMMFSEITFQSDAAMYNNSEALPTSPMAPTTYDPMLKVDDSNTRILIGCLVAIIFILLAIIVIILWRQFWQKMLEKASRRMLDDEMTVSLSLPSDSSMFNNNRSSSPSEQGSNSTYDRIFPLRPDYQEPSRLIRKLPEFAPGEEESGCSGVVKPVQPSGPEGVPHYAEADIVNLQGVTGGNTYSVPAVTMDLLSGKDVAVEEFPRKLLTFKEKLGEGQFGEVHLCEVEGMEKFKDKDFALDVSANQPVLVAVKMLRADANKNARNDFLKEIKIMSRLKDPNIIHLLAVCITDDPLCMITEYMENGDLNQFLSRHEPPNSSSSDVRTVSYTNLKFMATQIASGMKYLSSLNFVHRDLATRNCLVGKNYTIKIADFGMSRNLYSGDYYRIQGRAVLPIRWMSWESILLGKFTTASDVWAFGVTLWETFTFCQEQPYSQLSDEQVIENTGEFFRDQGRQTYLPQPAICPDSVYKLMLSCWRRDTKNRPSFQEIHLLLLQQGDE
Method in brief: as §1

[21] = molecular target: T21, PrKX (Homo sapiens, UniProt P51817)
T21 construct: purchased Millipore, Inc. (KinaseProfiler service)
Method in brief: as §1

[22] = molecular target: T22, TAO3 (Homo sapiens, UniProt Q9H2K8)
T22 construct: purchased Millipore, Inc. (KinaseProfiler service)
Method in brief: as §1

[23] = molecular target: T23, CDK1/cyclinB (Homo sapiens, UniProt P06493)
T23 construct: purchased Millipore (KinaseProfiler service)
Method in brief: as §1

[24] = molecular target: T24, EphA5 (Homo sapiens, UniProt P54756)
T24 construct: purchased Millipore, Inc. (KinaseProfiler service)
Method in brief: as §1

[25] = molecular target: T25, TrkA (Homo sapiens, UniProt P04629)
T25 construct: purchased Millipore, Inc. (KinaseProfiler service)
Method in brief: as §1

[26] = molecular target: T26, PTK5 (Homo sapiens, UniProt P42685)
T26 construct: purchased Millipore, Inc. (KinaseProfiler service)
T26 sequence (P42685 whole entry): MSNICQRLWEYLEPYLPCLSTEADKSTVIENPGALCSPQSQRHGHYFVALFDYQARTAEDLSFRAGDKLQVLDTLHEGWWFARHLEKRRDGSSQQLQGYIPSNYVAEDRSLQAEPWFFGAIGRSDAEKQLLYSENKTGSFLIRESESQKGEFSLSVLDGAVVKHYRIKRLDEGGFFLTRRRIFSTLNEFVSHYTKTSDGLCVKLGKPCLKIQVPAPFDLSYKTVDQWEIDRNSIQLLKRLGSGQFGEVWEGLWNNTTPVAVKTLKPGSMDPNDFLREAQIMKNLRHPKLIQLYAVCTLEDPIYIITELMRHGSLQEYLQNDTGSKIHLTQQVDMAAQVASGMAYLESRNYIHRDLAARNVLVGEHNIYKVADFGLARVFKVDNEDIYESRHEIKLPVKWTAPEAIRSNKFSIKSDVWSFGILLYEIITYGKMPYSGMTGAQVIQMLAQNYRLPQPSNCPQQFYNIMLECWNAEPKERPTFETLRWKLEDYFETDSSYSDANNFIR
Method in brief: as §1

[27] = molecular target: T27, mTOR (Homo sapiens, UniProt P42345)
T27 construct: purchased Millipore, Inc. (KinaseProfiler service)
Method in brief: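 Profiling uses one compound concentration (10 μM) and ATP adjusted to approximately each kinase's Km. Duplicate measurements are averaged and expressed as percent of the uninhibited control.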

[28] = molecular target: T28, p38gamma (Homo sapiens, UniProt P53778)
T28 construct: purchased Millipore, Inc. (KinaseProfiler service)
T28 sequence (P53778 whole entry): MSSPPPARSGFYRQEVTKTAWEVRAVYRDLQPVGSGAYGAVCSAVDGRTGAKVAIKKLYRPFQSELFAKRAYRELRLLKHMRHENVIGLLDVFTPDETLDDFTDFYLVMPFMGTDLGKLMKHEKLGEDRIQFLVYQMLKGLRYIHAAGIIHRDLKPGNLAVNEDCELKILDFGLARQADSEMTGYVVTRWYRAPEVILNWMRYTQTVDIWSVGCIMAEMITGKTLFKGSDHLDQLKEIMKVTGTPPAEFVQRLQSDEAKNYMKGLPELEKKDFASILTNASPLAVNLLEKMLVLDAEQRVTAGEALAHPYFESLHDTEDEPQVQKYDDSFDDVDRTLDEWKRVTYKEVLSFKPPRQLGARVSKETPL
Method in brief: as §1

[29] = molecular target: T29, Flt1 (Homo sapiens, UniProt P17948)
T29 construct: purchased Millipore, Inc. (KinaseProfiler service)
Method in brief: as §1

[30] = molecular target: T30, Abl-P (Homo sapiens, UniProt P00519)
T30 construct: purchased Millipore (KinaseProfiler service)
Method in brief: as §1

[31] = molecular target: T31, EphB3 (Homo sapiens, UniProt P54753)
T31 construct: purchased Millipore, Inc. (KinaseProfiler service)
T31 sequence (P54753 34-998): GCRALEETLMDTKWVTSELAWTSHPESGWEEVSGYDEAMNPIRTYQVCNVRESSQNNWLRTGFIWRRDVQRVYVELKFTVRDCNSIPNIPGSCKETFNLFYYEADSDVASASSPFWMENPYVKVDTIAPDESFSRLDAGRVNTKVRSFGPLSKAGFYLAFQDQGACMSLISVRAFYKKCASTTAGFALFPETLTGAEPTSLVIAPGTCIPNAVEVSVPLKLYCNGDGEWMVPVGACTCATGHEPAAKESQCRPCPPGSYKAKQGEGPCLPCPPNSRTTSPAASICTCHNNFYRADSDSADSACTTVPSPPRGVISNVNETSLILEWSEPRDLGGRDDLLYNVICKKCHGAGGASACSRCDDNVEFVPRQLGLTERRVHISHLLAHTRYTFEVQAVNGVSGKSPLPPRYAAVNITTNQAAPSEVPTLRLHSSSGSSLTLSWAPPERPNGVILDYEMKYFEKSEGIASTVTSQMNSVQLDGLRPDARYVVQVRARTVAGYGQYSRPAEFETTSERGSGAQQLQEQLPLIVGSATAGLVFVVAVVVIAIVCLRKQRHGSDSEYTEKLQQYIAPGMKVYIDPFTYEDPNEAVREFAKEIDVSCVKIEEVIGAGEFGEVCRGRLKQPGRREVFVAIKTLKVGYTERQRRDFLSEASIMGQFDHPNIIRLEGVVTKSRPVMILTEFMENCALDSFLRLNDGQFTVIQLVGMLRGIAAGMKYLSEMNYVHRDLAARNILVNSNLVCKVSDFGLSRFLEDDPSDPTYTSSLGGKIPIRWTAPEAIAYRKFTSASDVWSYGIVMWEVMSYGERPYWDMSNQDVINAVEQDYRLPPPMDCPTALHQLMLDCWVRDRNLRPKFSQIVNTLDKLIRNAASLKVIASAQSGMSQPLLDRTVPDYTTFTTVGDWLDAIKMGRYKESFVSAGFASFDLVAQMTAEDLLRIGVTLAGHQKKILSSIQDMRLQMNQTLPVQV
Method in brief: as §1

[32] = molecular target: T32, NEK7 (Homo sapiens, UniProt Q8TDX7)
T32 construct: purchased Millipore, Inc. (KinaseProfiler service)
Method in brief: as §1

[33] = molecular target: T33, Tie2 (Homo sapiens, UniProt Q02763)
T33 construct: purchased Millipore, Inc. (KinaseProfiler service)
Method in brief: as §1

T1 sequence (Q04912 25-1400): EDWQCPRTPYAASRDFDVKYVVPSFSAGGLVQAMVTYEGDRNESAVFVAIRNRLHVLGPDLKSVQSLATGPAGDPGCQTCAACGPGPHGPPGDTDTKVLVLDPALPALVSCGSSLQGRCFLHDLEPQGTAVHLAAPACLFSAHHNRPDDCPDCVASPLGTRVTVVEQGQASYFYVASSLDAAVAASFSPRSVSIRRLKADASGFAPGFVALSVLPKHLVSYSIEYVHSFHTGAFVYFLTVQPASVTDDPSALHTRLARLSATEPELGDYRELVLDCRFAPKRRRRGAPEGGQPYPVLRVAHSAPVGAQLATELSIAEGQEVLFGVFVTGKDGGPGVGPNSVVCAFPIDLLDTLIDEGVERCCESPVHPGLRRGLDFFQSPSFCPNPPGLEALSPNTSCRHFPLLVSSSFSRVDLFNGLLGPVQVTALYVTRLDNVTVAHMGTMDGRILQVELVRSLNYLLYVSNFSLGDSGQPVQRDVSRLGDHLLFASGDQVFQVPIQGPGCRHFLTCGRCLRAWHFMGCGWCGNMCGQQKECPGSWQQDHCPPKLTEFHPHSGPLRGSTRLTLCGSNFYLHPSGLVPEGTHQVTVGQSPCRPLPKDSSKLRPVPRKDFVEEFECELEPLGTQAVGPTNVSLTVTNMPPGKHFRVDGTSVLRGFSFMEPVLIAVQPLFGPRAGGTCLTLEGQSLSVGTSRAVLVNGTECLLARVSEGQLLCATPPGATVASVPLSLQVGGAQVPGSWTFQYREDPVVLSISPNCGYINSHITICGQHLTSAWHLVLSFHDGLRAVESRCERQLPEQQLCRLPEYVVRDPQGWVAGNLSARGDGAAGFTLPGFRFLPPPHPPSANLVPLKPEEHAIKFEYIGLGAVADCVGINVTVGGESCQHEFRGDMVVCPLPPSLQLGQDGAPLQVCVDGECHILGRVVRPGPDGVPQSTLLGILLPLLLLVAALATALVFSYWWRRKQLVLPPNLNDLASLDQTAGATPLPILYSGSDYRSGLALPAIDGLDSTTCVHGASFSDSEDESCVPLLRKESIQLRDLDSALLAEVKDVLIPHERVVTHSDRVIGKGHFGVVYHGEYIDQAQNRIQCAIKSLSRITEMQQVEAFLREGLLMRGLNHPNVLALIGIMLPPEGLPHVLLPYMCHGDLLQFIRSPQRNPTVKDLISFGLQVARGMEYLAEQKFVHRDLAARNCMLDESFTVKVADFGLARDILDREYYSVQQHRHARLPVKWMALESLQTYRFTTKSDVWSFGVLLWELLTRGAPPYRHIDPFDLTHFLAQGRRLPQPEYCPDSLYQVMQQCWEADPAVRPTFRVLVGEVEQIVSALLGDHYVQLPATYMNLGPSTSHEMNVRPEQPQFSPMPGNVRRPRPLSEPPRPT

Avg POC Ron [1] [POC]	Avg POC Flt4 [2] [POC]	Avg POC JAK3 [3] [POC]	Avg POC PTK6 [4] [POC]	Avg POC FGFR2 [5] [POC]	Avg POC IKKbeta [6] [POC]	Avg POC CAMK1d [7] [POC]	Avg POC CHK2 [8] [POC]	Avg POC KIT [9] [POC]	Avg POC Plk3 [10] [POC]	Avg POC MSK1 [11] [POC]	Avg POC PAK6 [12] [POC]	Avg POC TrkB [13] [POC]	Avg POC AKT1 [14] [POC]	Avg POC CDK7/cyclinH/MAT1 [15] [POC]	Avg POC IGF-1R Activated [16] [POC]	Avg POC Bmx [17] [POC]	Avg POC CDK2/cyclinE [18] [POC]	Avg POC CHK1 [19] [POC]	Avg POC DDR2 [20] [POC]	Structure (SMILES)	other results
100.5	88	94.5	106.5	103.5	104.5	81	93	102	111	88.5	95.5	0.5	105	96.5	93.5	100	93	102.5	105.5	COCc1ccc(C2CCC2)c(CNC(=O)Nc2c(C)c(-c3cnc(C)nc3)nn2-c2ccccc2)c1 [Example 10, 1-(2-cyclobutyl-5-(methoxymethyl)benzyl)-3-(4-methyl-3-(2-methylpyrimidin-5-yl)-1-phenyl-1H-pyrazol-5-yl)urea]	Avg POC PrKX [21]: 73.5 POC; Avg POC TAO3 [22]: 88.5 POC; Avg POC CDK1/cyclinB [23]: 92 POC; Avg POC EphA5 [24]: 114 POC; Avg POC TrkA [25]: −1 POC; Avg POC PTK5 [26]: 87.5 POC; Avg POC mTOR [27]: 75 POC; Avg POC p38gamma [28]: 102.5 POC; Avg POC Flt1 [29]: 88 POC; Avg POC Abl-P [30]: 97 POC; Avg POC EphB3 [31]: 100 POC; Avg POC NEK7 [32]: 110 POC; Avg POC Tie2 [33]: 81.5 POC
95.5	94	114	118.5	109.5	120.5	111.5	138	94	109.5	147	147.5	0	132	113.5	86.5	127.5	115.5	97	111	COCc1ccc(C(F)(F)F)c(CNC(=O)Nc2c(C)c(-c3cnn(C)c3)nn2-c2ccccc2)c1 [Example 33, 1-(1′,4-dimethyl-1-phenyl-1H,1′H-[3,4′-bipyrazol]-5-yl)-3-(5-(methoxymethyl)-2-(trifluoromethyl)benzyl)urea]	Avg POC PrKX [21]: 146.5 POC; Avg POC TAO3 [22]: 89.5 POC; Avg POC CDK1/cyclinB [23]: 99 POC; Avg POC EphA5 [24]: 123 POC; Avg POC TrkA [25]: −1 POC; Avg POC PTK5 [26]: 92.5 POC; Avg POC mTOR [27]: 99 POC; Avg POC p38gamma [28]: 107.5 POC; Avg POC Flt1 [29]: 91 POC; Avg POC Abl-P [30]: 170.5 POC; Avg POC EphB3 [31]: 69 POC; Avg POC NEK7 [32]: 116.5 POC; Avg POC Tie2 [33]: 137.5 POC
